# Experiment: Human HepG2 cell viability assay in 384 well format
# Type: toxicity, cell-based
# Set-up: dose 125 nL, time 70.5 hour; cytotoxicity at 70.5 h: concentration not given beside the values
# Details: HepG2 cells, read-out: Inhibition
row,SMILES,cytotoxicity at 70.5 h
1,CCOCC(=O)N1CCC(CSCc2ccco2)CC1,-10.8%
2,O=C(CN1C(=O)CCC1=O)N1CCC(CSCc2ccco2)CC1,-4.52%
3,O=C(c1ccc2[nH]cnc2c1)N1CCC(Oc2cccnc2)CC1,-6.98%
4,CCCNC(=O)c1ccc2c(OC)n(C)nc2c1,0.507%
5,O=c1ccc2c([nH]1)CCN(S(=O)(=O)c1ccc3c(c1)OCCO3)C2,1.39%
6,O=C(CN1C(=O)CCC1=O)N1CCOC2(CCOCC2)C1,29.6%
7,O=C(CN1C(=O)c2ccccc2C1=O)N1CCOC2(CCOCC2)C1,3.73%
8,CN(C)CC1CSCCCN1S(=O)(=O)Cc1cccc(F)c1 (centres undefined),-3.38%
9,COc1cccc(CC(=O)N2CCCSCC2CN2CCCC2)c1 (centres undefined),-3.04%
10,O=C(COc1ccc(Cl)cc1Cl)N1CCCSCC1CN1CCOCC1 (centres undefined),0.222%
11,Cc1cnc2n(c1=O)CC(C(=O)NCc1ccccc1Cl)CS2 (centres undefined),2.42%
12,Cn1nc(C(=O)N2CCCCC2c2nc3cc(F)ccc3[nH]2)ccc1=O (centres undefined),6.51%
13,CCCc1nc(C(=O)N2CCCn3nc(CCC(=O)O)cc3C2)cs1,-9.99%
14,CSc1ccc(S(=O)(=O)N2CCCCC2CCNC(C)=O)cc1 (centres undefined),-9.19%
15,CSc1ccccc1C(C(=O)O)N1CCN(Cc2ccccn2)CC1 (centres undefined),17%
16,Cc1nc(CN2CCCC(CCc3ccc(F)cc3F)C2)c[nH]1 (centres undefined),-1.86%
17,c1ccc(-c2noc3c2CN(CC2CC2)CC3)cc1,-3.25%
18,O=C(O)[C@@H]1CN(C(=O)c2cc(C3CC3)n[nH]2)C[C@H]1c1cccc(F)c1,-9.94%
19,Cn1ccnc1CN1C[C@@H](CN2CCC(CO)CC2)[C@@H](CO)C1,-7.99%
20,CN1CCCC2(CCN(C(=O)CCn3cncn3)C2)C1=O (centres undefined),-10.5%

row,SMILES,cytotoxicity at 70.5 h
1,Cc1nc[nH]c1CN1C[C@@H]2CC[C@H](C1)N(C(=O)CCNS(C)(=O)=O)C2,-1.67%
2,CN1CCCC1c1ccc(C(=O)N2CCc3ccccc3C2)s1 (centres undefined),17.6%
3,COc1cccc(OCc2cc(C(=O)NC[C@H]3CCCN3)n[nH]2)c1,-4.69%
4,C[C@@H]1CN(C(=O)c2cnc(C3CC3)nc2)CC[C@@]1(O)C1CCOCC1,-8.12%
5,CC(C)n1ccnc1C1CCN(Cc2ccc(Cl)c(F)c2)CC1,-5.05%
6,COCc1nc(CN2CCC3(CCCO3)CCC2=O)no1 (centres undefined),-7.37%
7,Cc1ccc(C#N)c(N2CCC(c3nccn3Cc3cscn3)CC2)n1,-8.13%
8,CCOCCC(=O)N1CCCC(c2ncc[nH]2)C1 (centres undefined),-0.67%
9,O=C(CCC1CCN(Cc2ncc[nH]2)CC1)Nc1ccccc1Cl,-10.7%
10,COc1cccc2c1OCC(C(=O)N1CCC(N3CCOC3=O)CC1)C2 (centres undefined),-8.52%
11,CC(=O)N1CCCC1c1ccc(C(=O)N2CCOCC2)s1 (centres undefined),14.5%
12,Cc1ccc(C)c(C(C(=O)O)N2CCCN(Cc3ccccn3)CC2)c1 (centres undefined),-8.23%
13,O=C(c1cccnc1O)N(Cc1ccsc1)CC1CCCO1 (centres undefined),8.65%
14,CCC(=O)N1CCC(c2nnc(Cn3cccn3)n2C2CC2)CC1,-6.95%
15,Cc1nc(CCNC(=O)C2CC(=O)N(C(C)(C)C)C2)sc1C (centres undefined),-8.11%
16,Cc1[nH]ccc1C(=O)N1CCC(c2nnc(Cn3cccn3)n2C)CC1,-0.908%
17,CCc1nnc(CN(C)c2nc(C3CCCC3)nc3c2cnn3C)o1,-6.42%
18,c1cc(-c2cnccn2)cc(-c2ccn(CCN3CCCC3)n2)c1,12.2%
19,Cc1ccc(NC(=O)N2C[C@H]3CC[C@@H]2CN(Cc2cscn2)C3)cc1,-6.47%
20,O=C(CCc1ccccc1)C1CCCN(C(=O)c2ncc(F)cc2F)C1 (centres undefined),-3.9%

row,SMILES,cytotoxicity at 70.5 h
1,CC(CCN1CCn2nc(CNC(=O)N(C)C)cc2C1)c1ccccc1 (centres undefined),-6.81%
2,Cc1nc(C2CCN(C(=O)CO)CC2)cc(N2CCOCC2)n1,-7.87%
3,CC[C@@H](CO)NC(=O)c1coc(COc2ccc(OC)cc2)n1,-13%
4,COCCNc1nc2c(c(NCc3ccncc3)n1)CCNCC2,-7.33%
5,Clc1ccccc1C1(c2ccnc(CC3CC3)n2)CCNCC1,4.53%
6,N#Cc1ccnc(N2CCC(c3nccn3Cc3cscn3)CC2)c1,31.3%
7,Cc1cc(C(=O)N[C@@H]2CCNC[C@H]2O)ccc1Cl,-6.34%
8,Fc1ccc2[nH]c(C3CCCN3CCc3ccccn3)nc2c1 (centres undefined),-8.26%
9,O=C(c1ccc[nH]1)N1CCC(c2nccn2Cc2ccncc2)CC1,-0.778%
10,COCC1CCN(C(=O)c2cccc(S(=O)(=O)NC3CCCC3)c2)C1 (centres undefined),-6.74%
11,CCN1CC(C(=O)N(C)Cc2ccon2)CC1=O (centres undefined),25.3%
12,CN(CCO)Cc1nnc(C2CCN(C(=O)c3cccnc3)CC2)n1C,-10.6%
13,COc1cc(CNC(C)Cn2cccn2)cc(OC)c1OC (centres undefined),-7.54%
14,CC(NCc1ccc(OCC(N)=O)cc1)c1ccc(Cl)c(Cl)c1 (centres undefined),-8.72%
15,Cc1nn(CCC#N)c(C)c1CCC(=O)N(C)C,13.3%
16,COc1cc2c(cc1CNCc1cccnc1-n1cccn1)OC(C)C2 (centres undefined),16.8%
17,CC(NCc1cnc(N2CCOCC2)nc1)c1ccc(Cl)s1 (centres undefined),-9.24%
18,CNCCc1nc2cc(Cl)ccc2[nH]1,16.5%
19,COc1ccc(C2CC(=O)c3c(O)cc(O)cc3O2)cc1O (centres undefined),-9.21%

# From ChEMBL document CHEMBL3507680, “University of Dundee, Gates Library screen for HepG2 cell viability”
